Reference: patent US10669235B2, “Indole derivatives and their use as protein kinase inhibitors” (RESPIVERT LIMITED, priority 2016, dated 2020)
Where a name gives a salt, the structure may show the parent alone. Read-outs that look alike come from different tables or passages of the source.

What was measured:
PDGFRβ = PDGFRβ (Homo sapiens (Human), UniProt P09619); assay: PDGF-BB induced phosphorylation of PDGFRβ in fibroblasts (MRC5, HTRF); format: cell-based; settings: MRC5 cells, PDGFBB stimulation; read-out: PDGFBB-induced PDGFRβ phosphorylation in MRC5 cells (IC50)
PDGFRβ, sequence (P09619 33-1106): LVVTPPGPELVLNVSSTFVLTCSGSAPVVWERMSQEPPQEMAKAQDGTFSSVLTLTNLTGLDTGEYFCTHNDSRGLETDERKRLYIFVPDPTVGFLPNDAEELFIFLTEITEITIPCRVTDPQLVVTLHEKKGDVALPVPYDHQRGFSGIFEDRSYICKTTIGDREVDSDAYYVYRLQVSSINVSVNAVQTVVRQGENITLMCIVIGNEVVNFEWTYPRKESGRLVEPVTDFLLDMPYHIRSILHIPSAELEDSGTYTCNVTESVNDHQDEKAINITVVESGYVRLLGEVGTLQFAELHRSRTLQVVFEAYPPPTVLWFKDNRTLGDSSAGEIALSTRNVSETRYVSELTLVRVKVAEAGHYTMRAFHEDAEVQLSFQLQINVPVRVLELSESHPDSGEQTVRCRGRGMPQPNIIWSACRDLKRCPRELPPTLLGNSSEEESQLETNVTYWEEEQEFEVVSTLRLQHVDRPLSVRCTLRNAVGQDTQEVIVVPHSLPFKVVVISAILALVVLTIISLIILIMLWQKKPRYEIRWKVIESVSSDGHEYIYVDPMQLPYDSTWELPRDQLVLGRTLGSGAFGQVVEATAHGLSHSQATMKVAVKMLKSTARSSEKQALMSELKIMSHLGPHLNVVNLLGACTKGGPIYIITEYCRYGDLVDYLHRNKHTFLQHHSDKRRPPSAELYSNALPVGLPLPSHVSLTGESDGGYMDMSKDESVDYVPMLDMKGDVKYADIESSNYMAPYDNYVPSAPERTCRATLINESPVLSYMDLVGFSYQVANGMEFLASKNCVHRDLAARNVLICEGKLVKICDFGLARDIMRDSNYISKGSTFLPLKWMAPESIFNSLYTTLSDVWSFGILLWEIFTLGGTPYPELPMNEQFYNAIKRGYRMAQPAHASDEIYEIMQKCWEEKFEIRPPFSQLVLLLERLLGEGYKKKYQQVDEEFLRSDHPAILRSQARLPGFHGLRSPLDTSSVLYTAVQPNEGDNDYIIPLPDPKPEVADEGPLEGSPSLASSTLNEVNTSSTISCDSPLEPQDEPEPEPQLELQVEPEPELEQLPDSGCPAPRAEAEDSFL

PAMPA permeability assay = format: in vitro ADME; settings: pH 7, PAMPA; for Papp at 5 hr, 10 μM: pH 7, 10 μM
MRC5 cells = assay: Cell viability assay in MRC5 cells (MTT)
[1] = Pharmacokinetic measurements in rats (i.v., i.t., oral); format: in vivo; settings: rat; for concentration at 0.1 h: read-out: lung concentration (nM) at time 0.1 h; for concentration at 1.5 h: read-out: lung concentration (nM) at time 1.5 h; for concentration at 6 h: read-out: lung concentration (nM) at time 6 h; for concentration at 24 h: read-out: lung concentration (nM) at time 24 h
[2] = i.t. dose 0.1 (nintedanib 0.42)
[3] = i.t. dose 0.1 (nintedanib 0.42), 6 h
[4] = i.t. dose 0.1 (nintedanib 0.42), 24 h
[5] = i.v. dose 0.1 (nintedanib 0.42)
[6] = i.v. dose 0.1 (nintedanib 0.42), 6 h
[7] = i.v. dose 0.1 (nintedanib 0.42), 24 h

COC(=O)c1cc2c(cc1C)/C(=C(/Nc1ccc(C(=O)NCCN3CCC(O)CC3)cc1)c1ccccc1)C(=O)N2 [Example 12, (Z)-Methyl 3-(((4-((2-(4-hydroxypiperidin-1-yl)ethyl)carbamoyl)phenyl)amino)(phenyl)methylene)-5-methyl-2-oxoindoline-6-carboxylate, 0.8 formate]
IC50 (PDGFRβ): 4.23 nM | recovery at 5 hr, 10 μM (PAMPA permeability assay): 87.7% | Papp at 5 hr, 10 μM (PAMPA permeability assay): 0.00638 ×10⁻⁶ cm/s | Cell viability at 100 nM (%) (MRC5 cells): 92.2% | Cell viability at 300 nM (%) (MRC5 cells): 105.5% | Cell viability at 1000 nM (%) (MRC5 cells): 93.4%

COC(=O)c1cc2c(cc1C)/C(=C(/Nc1ccc(C(=O)NCC(=O)N3CCN(CCO)CC3)cc1)c1ccccc1)C(=O)N2 [Example 7, (Z)-Methyl 3-(((4-((2-(4-(2-hydroxyethyl)piperazin-1-yl)-2-oxoethyl)carbamoyl)phenyl)amino) (phenyl)methylene)-5-methyl-2-oxoindoline-6-carboxylate, formate]
IC50 (PDGFRβ): 6.04 nM | recovery at 5 hr, 10 μM (PAMPA permeability assay): 56.3% | Papp at 5 hr, 10 μM (PAMPA permeability assay): 0.00653 ×10⁻⁶ cm/s | MRT ([1]; male, CD, plasma, iv): 42 min | clearance ([1]; male, CD, plasma, iv): 75 mL/min/kg | half-life ([1]; male, CD, plasma, iv): 36 min | Vd ([1]; male, CD, plasma, iv, read-out: Vss): 3.4 L/kg | Lung conc i.t./i.v. Ratio at time 0.1 h [1]: 15.5 | Lung conc i.t./i.v. Ratio at time 1.5 h [1]: 20.1 | Lung conc i.t./i.v. Ratio at time 6 h ([1]; 6 h): >42 | Lung conc i.t./i.v. Ratio at time 24 h ([1]; 24 h): >10 | i.t. BAV (%) [1, 2]: 35% | BAL % administered dose at time 0.1 h [1, 2]: 3.5% | lung/plasma conc ratio at time 0.1 h [1, 2]: 39 | concentration at 0.1 h [1, 2]: 1532 nM | BAL % administered dose at time 1.5 h [1, 2]: 0.6% | lung/plasma conc ratio at time 1.5 h [1, 2]: >265 | concentration at 1.5 h [1, 2]: 886 nM | BAL % administered dose at time 6 h [1, 3]: 0.1% | lung/plasma conc ratio at time 6 h [1, 3]: >35 | concentration at 6 h [1, 3]: 116 nM | BAL % administered dose at time 24 h [1, 4]: BQL | lung/plasma conc ratio at time 24 h [1, 4]: >8 | concentration at 24 h [1, 4]: 27 nM | BAL % administered dose at time 0.1 h [1, 5]: 0.06% | lung/plasma ratio at time 0.1 h [1, 5]: 2 | concentration at 0.1 h [1, 5]: 99 nM | BAL % administered dose at time 1.5 h [1, 5]: BQL | lung/plasma ratio at time 1.5 h [1, 5]: 12 | concentration at 1.5 h [1, 5]: 44 nM | BAL % administered dose at time 6 h [1, 6]: BQL | lung concentration (nM) at time 6 h [1, 6]: BQL | BAL % administered dose at time 24 h [1, 7]: BQL | lung concentration (nM) at time 24 h [1, 7]: BQL | Oral BAV (%) ([1]; oral dose 3 mg/kg): <7% | Cell viability at 100 nM (%) (MRC5 cells): 102.9% | Cell viability at 300 nM (%) (MRC5 cells): 97.2% | Cell viability at 1000 nM (%) (MRC5 cells): 67.5%

COC(=O)c1cc2c(cc1C)/C(=C(/Nc1ccc(C(=O)NCC(=O)N3CCN(C)CC3)cc1)c1ccccc1)C(=O)N2 [Example 8, (Z)-Methyl 5-methyl-3-(((4-((2-(4-methylpiperazin-1-yl)-2-oxoethyl)carbamoyl)phenyl)amino) (phenyl)methylene)-2-oxoindoline-6-carboxylate, 0.5 formate]
IC50 (PDGFRβ): 12 nM | recovery at 5 hr, 10 μM (PAMPA permeability assay): 87.8% | Papp at 5 hr, 10 μM (PAMPA permeability assay): 0.156 ×10⁻⁶ cm/s | Cell viability at 100 nM (%) (MRC5 cells): 110.4% | Cell viability at 300 nM (%) (MRC5 cells): 108.2% | Cell viability at 1000 nM (%) (MRC5 cells): 77.7%

COC(=O)c1cc2c(cc1C)/C(=C(/Nc1ccc(C(=O)NCCN3CCS(=O)(=O)CC3)cc1)c1ccccc1)C(=O)N2 [Example 52, (Z)-Methyl 3-(((4-((2-(1,1-dioxidothiomorpholino)ethyl)carbamoyl)phenyl)amino)(phenyl)methylene)-5-methyl-2-oxoindoline-6-carboxylate]
IC50 (PDGFRβ): 5.49 nM | Cell viability at 100 nM (%) (MRC5 cells): 81.3% | Cell viability at 300 nM (%) (MRC5 cells): 81.2% | Cell viability at 1000 nM (%) (MRC5 cells): 85.9%

COC(=O)c1cc2c(cc1C)/C(=C(/Nc1ccc(S(=O)(=O)NCCN3CCN(C)CC3)cc1)c1ccccc1)C(=O)N2 [Example 1, (Z)-Methyl 5-methyl-3-(((4-(N-(2-(4-methylpiperazin-1-yl)ethyl)sulfamoyl)phenyl)amino)(phenyl)methylene)-2-oxoindoline-6-carboxylate, 0.8 formate]
IC50 (PDGFRβ): 25.6 nM | recovery at 5 hr, 10 μM (PAMPA permeability assay): 92% | Papp at 5 hr, 10 μM (PAMPA permeability assay): 0.123 ×10⁻⁶ cm/s | Cell viability at 100 nM (%) (MRC5 cells): 103.6% | Cell viability at 300 nM (%) (MRC5 cells): 89% | Cell viability at 1000 nM (%) (MRC5 cells): 68.7%

COC(=O)c1cc2c(cc1C)/C(=C(/Nc1ccc(C(=O)NCCN3CCCN(C)CC3)cc1)c1ccccc1)C(=O)N2 [Example 5, (Z)-Methyl 5-methyl-3-(((4-((2-(4-methyl-1,4-diazepan-1-yl)ethyl)carbamoyl)phenyl)amino) (phenyl)methylene)-2-oxoindoline-6-carboxylate, formate]
IC50 (PDGFRβ): 15 nM | recovery at 5 hr, 10 μM (PAMPA permeability assay): 58.7% | Papp at 5 hr, 10 μM (PAMPA permeability assay): 0.00254 ×10⁻⁶ cm/s | Lung conc i.t./i.v. Ratio at time 0.1 h [1]: 7 | Lung conc i.t./i.v. Ratio at time 1.5 h [1]: 12 | Lung conc i.t./i.v. Ratio at time 6 h ([1]; 6 h): 2 | Lung conc i.t./i.v. Ratio at time 24 h ([1]; 24 h): 7 | BAL % administered dose at time 0.1 h [1, 2]: 13.6% | lung/plasma conc ratio at time 0.1 h [1, 2]: 371 | concentration at 0.1 h [1, 2]: 5506 nM | BAL % administered dose at time 1.5 h [1, 2]: 0.9% | lung/plasma conc ratio at time 1.5 h [1, 2]: >2285 | concentration at 1.5 h [1, 2]: 4022 nM | BAL % administered dose at time 6 h [1, 3]: 0.2% | lung/plasma conc ratio at time 6 h [1, 3]: >606 | concentration at 6 h [1, 3]: 1067 nM | BAL % administered dose at time 24 h [1, 4]: 0.2% | lung/plasma conc ratio at time 24 h [1, 4]: >951 | concentration at 24 h [1, 4]: 1674 nM | BAL % administered dose at time 0.1 h [1, 5]: BQL | lung/plasma ratio at time 0.1 h [1, 5]: 127 | concentration at 0.1 h [1, 5]: 765 nM | BAL % administered dose at time 1.5 h [1, 5]: BQL | lung/plasma ratio at time 1.5 h [1, 5]: >188 | concentration at 1.5 h [1, 5]: 330 nM | BAL % administered dose at time 6 h [1, 6]: BQL | lung/plasma ratio at time 6 h [1, 6]: >284 | concentration at 6 h [1, 6]: 499 nM | BAL % administered dose at time 24 h [1, 7]: BQL | lung/plasma ratio at time 24 h [1, 7]: >140 | concentration at 24 h [1, 7]: 247 nM | Cell viability at 100 nM (%) (MRC5 cells): 91.5% | Cell viability at 300 nM (%) (MRC5 cells): 81% | Cell viability at 1000 nM (%) (MRC5 cells): 84.8%

COC(=O)c1cc2c(cc1C)/C(=C(/Nc1ccc(C(=O)NCCN3CCNC(=O)CC3)cc1)c1ccccc1)C(=O)N2 [Example 53, (Z)-Methyl 5-methyl-2-oxo-3-(((4-((2-(5-oxo-1,4-diazepan-1-yl)ethyl)carbamoyl)phenyl)amino)(phenyl)methylene)indoline-6-carboxylate]
IC50 (PDGFRβ): 6.5 nM | Cell viability at 100 nM (%) (MRC5 cells): 89.1% | Cell viability at 300 nM (%) (MRC5 cells): 92.9% | Cell viability at 1000 nM (%) (MRC5 cells): 95.3%
